US8036738B2, “Iontophoretic transdermal drug delivery system based on conductive polyaniline membrane” (priority 2006, dated 2011)
Where a name gives a salt, the structure may show the parent alone. Read-outs that look alike come from different tables or passages of the source. Blank lines part the entries; values can stand above or below the molecule they belong to.

Legend:
[1] = Release through PANi membrane in Franz diffusion cell, no iontophoresis
[2] = Excerpt: To study the iontophoretic property of the PANi membranes, standard Ag|AgCl electrode was used.
[3] = remark: listed apart in the source
Excerpt: For the permeation study of PANi membrane based on aqueous-organic partitioning system, doxycycline HCl suspension in light mineral oil was used as the donor solution so that its permeation results would be compared with those from a hydrophilized polyvinylidene fluoride (PVDF) membrane in a general way.

[4] = PVDF membrane, aqueous-organic partitioning system, ref [9], cited from earlier work
[5] = Iontophoretic release through mouse skin with and without PANi membrane; type: in vitro ADME; details: PANi membrane and mouse skin together, iontophoresis, aqueous donor without chemical enhancer
[6] = as above; type: in vitro ADME; details: 0.3 mA/cm^2, EtOH:water 2:1 with 5% linoleic acid
Method: Skin membranes: Male hairless mice, strain SKH1, 8 weeks old, were supplied by Charles River Laboratories (Wilmington, Mass.). Mice were euthanized by carbon dioxide asphyxiation. Their skins were excised and kept at −30° C. until used.
In the case of skin membranes, the plastic bags containing the mouse skins were first taken out of the freezer and put into a beaker filled with room temperature water until they were defrosted. The skin samples were then removed from the plastic bags and cleaned of adhering fat deposits. They were then cut into small pieces of appropriate size and carefully mounted on top of the diffusion cells and left to equilibrate for 1 hour.
[formula] […] Results and Discussion
Three sets of iontophoretic experiments were carried out. In the first set, as a control test, traditional Ag|AgCl electrodes were used for the mouse skin only without the PANi membrane. In the other two sets, with the PANi membrane and the mouse skin together, either PANi|AgCl configuration or the Ag|AgCl configuration as electrodes was tested.
Therefore, instead of using a simple aqueous solution, 5% linoleic acid was added to the doxycycline HCl solution consisting of ethanol and water (EtOH: water=2:1, v/v). The reason for using ethanol was to increase the solubility of linoleic acid in the water.

[7] = PANi + skin, Ag|AgCl electrodes
[8] = PANi + skin, PANi|AgCl electrodes

Structure (SMILES): Cn1c(=O)c2c(ncn2C)n(C)c1=O [Caffeine, caffeine]
- Q24 (24 hours accumulation in the receptor part) ([1]; PANi membrane only): 573 ± 246 μg/cm^2
- Permeability ([1]; PANi membrane only, aqueous donor (about 200 mg/10 ml caffeine, doxycycline HCl; about 400 mg/10 ml lidocaine HCl)): 3.33 ± 2.5 ×10⁻⁶ cm/s
- Flux ([1]; PANi membrane only, aqueous donor, steady state): 240 ± 177 μg/cm^2 hr
- Flux ([1]; caffeine donor concentration 5 mg/ml, PANi membrane): 66.6 μg/cm^2 h
- Flux ([1]; caffeine donor concentration 10 mg/ml, PANi membrane): 136.2 μg/cm^2 h
- increase in flux vis-a-vis Table 1 [2]: about 30%
- release flux rate [2]: 305±79 μg/cm^2-hr

- Flux [3]: 31 ± 18 μg/cm^2 hr
- Permeability [3]: 0.83 ± 0.56 ×10⁻⁶ cm/s
- Q [3]: 80 ± 46 μg/cm^2
- release, in words [5]: no release was achieved
- Experimental flux [2]: 793 ± 111 μg/cm^2 hr
- amount a skin patch can deliver [2]: about 0.8 mg
- change of flux versus passive release (Table 1), in words [2]: increased more than ten times
- release flux rate [2]: 793±111 μg/cm^2-hr
- release, in words ([6]; PANi + skin, Ag|AgCl electrode set): no release
- Flux [6, 7]: 0 μg/cm^2 hr
- Q24 [6, 7]: 0 μg/cm^2
- Flux [6, 8]: 94.4 ± 81.2 μg/cm^2 hr
- Permeability [6, 8]: 1.56 ± 1.33 ×10⁻⁶ cm/s
- Q24 [6, 8]: 2760 ± 3980 μg/cm^2
- Flux ([6]; Skin only, Ag|AgCl electrodes): 48.5 ± 8.5 μg/cm^2 hr
- Permeability ([6]; Skin only, Ag|AgCl electrodes): 1.06 ± 0.186 ×10⁻⁶ cm/s
- Q24 ([6]; Skin only, Ag|AgCl electrodes): 1020 ± 642 μg/cm^2
Structure (SMILES): C[C@H]1c2cccc(O)c2C(=O)C2=C(O)[C@]3(O)C(=O)C(C(N)=O)=C(O)[C@@H](N(C)C)[C@@H]3[C@@H](O)[C@@H]21.Cl [Doxycycline HCl, doxycycline hydrochloride]
- Q ([4]; 24 hr): 1440 ± 240 μg/cm^2
- Flux [4]: 146 ± 27 μg/cm^2 hr
- Permeability [4]: 8.3 ± 2.8 ×10⁻⁶ cm/s

Structure (SMILES): CCN(CC)CC(=O)Nc1c(C)cccc1C [Lidocaine HCl, lidocaine hydrochloride]
- Q24 (24 hours accumulation in the receptor part) ([1]; PANi membrane only): 3330 ± 1760 μg/cm^2
- Experimental flux [2]: 411 ± 144 μg/cm^2 hr
- change of flux versus passive release (Table 1), in words [2]: small decrease in the flux
- release flux rate [2]: 411±144 μg/cm^2-hr
